Legend:
stress ulcer formation = assay: WIS: Restraint and Water Immersion Stress-Induced Ulcer Inhibition Test; assay type: in vivo, male Crj:SD or Slc:SD rats; details: 100 mg/kg oral, 10 min before 7 h restraint and water immersion (21° C.), SD rats
Protocol: WIS: Restraint and Water Immersion Stress-Induced Ulcer Inhibition Test
The degree of inhibition of the stress ulcer formation is tested.
Male Crj:SD or Slc:SD rats (6 to 7-week-old) were fasted overnight, but allowed free access to water. Each group has 5 to 8 of these rats. The sample compound was dissolved or suspended in an aqueous solution of 0.3% sodium carboxymethylcellulose or 0.05% Tween 80 and then was orally administered (100 mg/10 ml/kg). To a control group, the vehicle was administered. 10 minutes later, the rats were placed in a stress cage and immersed to the level of xipfoid process in a water bath (21° C.) for 7 hours. At the end of the stress, the rats were sacrificed by inhalation of ether or carbon dioxide. Then, the stomach of each was removed, inflated by injecting 10 ml of 5% formalin neutral buffer solution, and immersed in 1% formalin neutral buffer solution for 30 minutes or more to be fixed. The stomach was incised along the greater curvature and then the length of each erosion in the glandular portion was determined under dissecting microscope. The sum of the length of erosions per stomach was defined as ulcer index (UI).
The effect obtained when 100 mg/kg of the sample compound had been administered was expressed as ulcer formation inhibitory rate (%) as follows:
ulcer formation inhibitory rate (%)=(1-(UI in sample group/UI in control

[1] = tested on: isolated gastric fundic gland (histamine-stimulated acid secretion); assay: CAP: Acid Secretion Inhibition Test In Vitro ([14C]-aminopyrine uptake); assay type: cell-based, male Japanese White rabbit; details: Oryctolagus cuniculus, 40 min, final concentration 10^-5 M, histamine 10^-5 M, 37° C., read-out: CAP: acid secretion inhibitory rate
Protocol: CAP: Acid Secretion Inhibition Test In Vitro
The acid secretion inhibitory activity in a cell level is studied. It can also be used for studying the mechanism of the effect. […]
ii-a) Preparation of isolated gastric fundus gland suspension
First, an isolated gastric fundic gland sample was prepared. Namely, a male Japanese White rabbit (2.5 to 3 kg) was anesthetized to death with Nembutal™ and then the abdomen was incised. Immediately thereafter, the stomach was removed and, after its pyloric and cardiac antrum were severed, incised along its greater curvature into two sheets. […]
Into 70 ml of the nutrient solution containing 1 mg/ml of collagenase, minced mucosal pieces were dispersed and intensely stirred in a conical flask with a stirrer at 37° C. for 40 to 60 minutes. During this period, 100% O2 was sprayed on the nutrient solution surface and the pH was appropriately measured such that it was immediately adjusted to pH 7.4, when the value was therebelow, with a base. […] The number of cells was counted under microscope and adjusted to 1.6×10^6 cells/ml. […]
Then, [^14 C]-aminopyrine uptake test was performed. […] The gland pellet was completely dried as the tube with its lid being opened was kept for one night in a drying oven at 80° C. and then the lid was closed and the weight was determined at room temperature. […]

[2] = MTT: Cell Damaging and Protecting Effect Test; assay type: cell-based, male Japanese White rabbit; details: rabbit, gastric corpus mucosa cells, final concentration 10^-4 M, 37° C., smaller value is better, read-out: MTT: cell damaging rate
Source text: MTT: Cell Damaging and Protecting Effect Test
It is confirmed that there is no toxicity in cell level. Those having a toxicity in cell level are inappropriate as an anti-ulcer drug.
A male Japanese White rabbit (2.5 to 3 kg) was anesthetized to death by Nembutal™ and, immediately thereafter, its stomach was removed. The greater curvature of the stomach was incised so as to remove the stomach contents therefrom. After the mucosal surface was washed with HBSS (Hanks' Balanced Salt Solution), the stomach in ice-cooled HBSS was transferred to a laboratory. […]
The sample compound was dissolved in DMSO so as to attain a concentration of 10^-2 M and then diluted with HBSS containing 2% of Ultrocer G™ so as to attain a final concentration of 10^-4 M. To each group, which 8 wells were used for, 10 μl of MTT reagent was added immediately after 100 μl of the medium in each well was exchanged for same volume of the resulting solution of the sample compound. […] Then, the absorbance (OD: 570 to 630) was measured by a microplate reader. […]
The cell damaging or cell protecting effect of the sample compound at the final concentration of 10^-4 M was expressed as cell damaging rate (%) as follows:
cell damaging rate (%)=(1-(absorbance in sample group/absorbance in control […]

Row | Compound | WIS: ulcer formation inhibitory rate (stress ulcer formation) [%] | inhibition at 10 µM [1] [%] | cytotoxicity at 4 h, 100 µM [2] [%]
1 | CC(C)Cc1cc(C(=O)NCCCOc2cccc(CN3CCCCC3)c2)ccc1OCc1ccc(F)cc1 [Example 1] | 55 | 104 | -3
2 | CC(C)=CCC/C(C)=C/COc1ccc(C(=O)NCCCOc2cccc(CN3CCCCC3)c2)cc1 [Example 2] | 62 | 102 | 49

— patent US5891890A, “Benzamide derivatives, anti-ulcer drug, and antibacterial drug” (Shiseido Co., Ltd., priority 1997, dated 1999)
